Results: patent publication US7569539B2, “Oral administration of calcitonin” (Novartis AG, priority 2002, dated 2009)
Read-outs that look alike come from different tables or passages of the source.

How the values were obtained:
[1] = Effect of meal timing on plasma sCT after oral sCT/5-CNAC tablet in human subjects (Example 7); type: in vivo; conditions: for AUC / Cmax: both sexes, human, plasma, po, 1 mg, oral tablet 1 mg sCT + 5-CNAC disodium salt, plasma sCT; for AUC: read-out: Mean AUC ± SD; for Cmax: read-out: Mean Cmax ± SD
Protocol: The effect of administration of a tablet formulation of sCT in combination with 5-CNAC disodium salt at various time intervals relative to meals is measured in human subjects.
The tablet formulation employed is a formulation according to Example 5, comprising 1 mg sCT and 5-CNAC disodium salt in an amount corresponding to […] of 5-CNAC.
The study employs a seven-period, randomized, open-label, balanced Latin-square, crossover design. Twenty-one human healthy adult subjects (7 males, 7 pre-menopausal females and 7 post-menopausal females), between the ages of 18 and 65 years of age are involved. Pre- and post-menopausal females are matched for height (±0.5 cm) and weight (±8%).
The study consists of a screening period (−21 to −2 days prior to dosing), a baseline period (24-hour period prior to dosing, or day −1), and a treatment period comprised of seven daily single-dose administrations. Subjects are instructed to fast for at least 8 hours prior to undergoing screening evaluations so that blood samples can be drawn for bioanalytical testing. At baseline, subjects are admitted to the study center at least 12 hours prior to dosing and remain domiciled until study completion (one day following the final dose of study drug, or study day 8). The interdose interval between each treatment will be approximately 24 hours. Subjects are randomized according to the treatment allocation schedule to receive a single oral dose under either fasted or fed conditions. Under fed conditions, meal times vary relative to a fixed dosing time, in order to assess the effect of varying meal and dose intervals on drug pharmacokinetics.
During the treatment period, subjects fast overnight for a minimum of 10 hours prior to dosing, except when the specified treatment condition requires a meal to be served pre-dose. Dosing occurs between 9 and 10 AM for seven consecutive days. Meal times vary around a fixed dosing interval over a seven-day treatment period in order to determine optimal dosing times relative to food intake. Included is the administration of study drug under fasting conditions, which will serve as the reference condition to assess drug pharmacokinetics under varying meal and dose intervals, as well as study drug administration with meals, to determine the extent of food interaction.
The order in which subjects are initially dosed remains consistent throughout the study, so that the first subject dosed in period 1 remains the first subject dosed across all treatment conditions. Except where fasting is the specified treatment condition, subjects receive a standardized FDA (or equivalent) high-fat breakfast at a different time each day relative to dosing. Subjects whose treatment assignment is to fast, continue fasting for at least four hours post-dose, after which they may receive a standard meal at the specified time. Sampling for pharmacokinetic assessments are performed at scheduled intervals for up to 8 hours post-dose. If pharmacokinetic sampling times coincide with the start of a meal, sampling occurs first. Subjects are discharged from the study center one day following the final dose of study drug (day 8), after the completion of all safety evaluations.
Pharmacokinetic blood sampling is performed each day at the following timepoints (unless otherwise specified, when sampling times coincide with the start of a meal, sampling is done first): pre-dose (5 mL blood on each treatment day, lithium-heparin tubes to yield plasma), and then 5, 10, 15, 30, 45, 60, 90, 120, 180 and 240 minutes post-dose (3 mL blood), lithium-heparin tube to yield plasma). For treatment conditions B, C, D and E (see table below) one additional sample (3 mL) is obtained at 5 minutes after the start of the meal. For treatment condition E, the 10 minute sample also represents the 5-minute post-meal sample. For treatment B only, one additional sample is obtained at 15 minutes after the start of the meal (i.e., at 75 minutes post-dose). […]

[2] = as above; type: in vivo; conditions: tablet 1 mg sCT + 5-CNAC disodium salt (equivalent to 200 mg 5-CNAC), 5 to 60 minutes prior to a meal instead of with a meal
[3] = Treatment group A: after overnight fast
[4] = Treatment group B: 1 hour pre-meal
[5] = Treatment group C: 30 minutes pre-meal
[6] = Treatment group D: 15 minutes pre-meal
[7] = Treatment group E: 5 minutes pre-meal
[8] = Treatment group G: 2.5 hours post-meal

With CC(C)C[C@H](NC(=O)[C@H](CCCCN)NC(=O)CNC(=O)[C@H](CC(C)C)NC(=O)[C@@H](NC(=O)[C@@H]1CSSC[C@H](N)C(=O)N[C@@H](CO)C(=O)N[C@@H](CC(N)=O)C(=O)N[C@@H](CC(C)C)C(=O)N[C@@H](CO)C(=O)N[C@@H]([C@@H](C)O)C(=O)N1)C(C)C)C(=O)N[C@@H](CO)C(=O)N[C@@H](CCC(N)=O)C(=O)N[C@@H](CCC(=O)O)C(=O)N[C@@H](CC(C)C)C(=O)N[C@@H](Cc1c[nH]cn1)C(=O)N[C@@H](CCCCN)C(=O)N[C@@H](CC(C)C)C(=O)N[C@@H](CCC(N)=O)C(=O)N[C@H](C(=O)N[C@@H](Cc1ccc(O)cc1)C(=O)N1CCC[C@H]1C(=O)N[C@@H](CCCNC(=N)N)C(=O)N[C@H](C(=O)N[C@@H](CC(N)=O)C(=O)N[C@H](C(=O)NCC(=O)N[C@@H](CO)C(=O)NCC(=O)N[C@H](C(=O)N1CCC[C@H]1C(N)=O)[C@@H](C)O)[C@@H](C)O)[C@@H](C)O)[C@@H](C)O [sCT, salmon calcitonin] the “plasma levels of sCT” value ([1]; Groups C and D: administered either 15 or 30 minutes before a meal) was “maximum plasma levels”, the “plasma levels of sCT” value ([1]; administration with a meal (Group F)) was “negligible” and the AUC [1, 3] was 0.0663 ± 0.0422 ng·h/mL. For the same compound, the Cmax [1, 3] was 0.139 ± 0.0743 ng/mL, the AUC [1, 4] was 0.0634 ± 0.0379 ng·h/mL and the Cmax [1, 4] was 0.136 ± 0.0647 ng/mL. It also gave an AUC [1, 5] of 0.079 ± 0.0793 ng·h/mL, a Cmax [1, 5] of 0.162 ± 0.142 ng/mL and an AUC [1, 6] of 0.0721 ± 0.0451 ng·h/mL. For the same compound, the Cmax [1, 6] was 0.162 ± 0.0679 ng/mL, the AUC [1, 7] was 0.0604 ± 0.0674 ng·h/mL and the Cmax [1, 7] was 0.149 ± 0.151 ng/mL. It also gave an AUC ([1]; Treatment group F: with meal) of 0.0126 ± 0.0185 ng·h/mL, a Cmax ([1]; Treatment group F: with meal) of 0.024 ± 0.0267 ng/mL and an AUC [1, 8] of 0.0611 ± 0.114 ng·h/mL. The Cmax [1, 8] was 0.0798 ± 0.134 ng/mL and the “increase (Cmax and AUC) in oral absorption” value [2] was roughly 5 fold.
